#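 These data come from cells grown in 96-well plates and exposed to compound for 48 hours at five concentrations. Abbreviation: GI50, concentration required for 50% inhibition of growth. TGI: concentration producing complete growth inhibition.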
# Key:
# Assay in all cases: NCI anticancer screen, dose series, 48 h
# UO-31 renal = test system: UO-31 renal
# MDA-MB-231 breast = test system: MDA-MB-231 breast
# HOP-92 NSCLC = test system: HOP-92 NSCLC
# RXF 393 renal = test system: RXF 393 renal
# HCC-2998 colon = test system: HCC-2998 colon
# BT-549 breast = test system: BT-549 breast
# SF-295 CNS = test system: SF-295 CNS
# SK-MEL-28 melanoma = test system: SK-MEL-28 melanoma
# OVCAR-5 ovarian = test system: OVCAR-5 ovarian
# A549 NSCLC = test system: A549 NSCLC
# NCI/ADR-RES ovarian = test system: NCI/ADR-RES ovarian
# SK-OV-3 ovarian = test system: SK-OV-3 ovarian
# K-562 leukemia = test system: K-562 leukemia
# SK-MEL-5 melanoma = test system: SK-MEL-5 melanoma
# UACC-257 melanoma = test system: UACC-257 melanoma
# M14 melanoma = test system: M14 melanoma
# NCI-H23 lung = test system: NCI-H23 lung
# IGROV1 ovarian = test system: IGROV1 ovarian
# SNB-75 CNS = test system: SNB-75 CNS
# OVCAR-8 ovarian = test system: OVCAR-8 ovarian
# OVCAR-3 ovarian = test system: OVCAR-3 ovarian
# UACC-62 melanoma = test system: UACC-62 melanoma
# NCI-H522 lung = test system: NCI-H522 lung
# SN12C renal = test system: SN12C renal
# A498 renal = test system: A498 renal
# MOLT-4 leukemia = test system: MOLT-4 leukemia
# RPMI-8226 leukemia = test system: RPMI-8226 leukemia
# SW-620 colon = test system: SW-620 colon
# NCI-H460 lung = test system: NCI-H460 lung
# SF-268 CNS = test system: SF-268 CNS
# PC-3 prostate = test system: PC-3 prostate
# DU-145 prostate = test system: DU-145 prostate
# LOX IMVI melanoma = test system: LOX IMVI melanoma
# TK-10 renal = test system: TK-10 renal
# T-47D breast = test system: T-47D breast
# CCRF-CEM leukemia = test system: CCRF-CEM leukemia
# NCI-H226 lung = test system: NCI-H226 lung
# COLO 205 colon = test system: COLO 205 colon
# MCF7 breast = test system: MCF7 breast
# SNB-19 CNS = test system: SNB-19 CNS
# HS 578T breast = test system: HS 578T breast
# CAKI-1 renal = test system: CAKI-1 renal
# HL-60(TB) leukemia = test system: HL-60(TB) leukemia
# HCT-15 colon = test system: HCT-15 colon
# KM12 colon = test system: KM12 colon
# ACHN renal = test system: ACHN renal
# MALME-3M melanoma = test system: MALME-3M melanoma
# EKVX NSCLC = test system: EKVX NSCLC
# OVCAR-4 ovarian = test system: OVCAR-4 ovarian
# SF-539 CNS = test system: SF-539 CNS
# 786-0 renal = test system: 786-0 renal
# MDA-MB-435 = test system: MDA-MB-435
# SK-MEL-2 melanoma = test system: SK-MEL-2 melanoma
# HCT-116 colon = test system: HCT-116 colon
# U251 CNS = test system: U251 CNS
# HOP-62 NSCLC = test system: HOP-62 NSCLC
smiles,measurement,setting,value
c1ccc2nc(OCCN3CC3)ccc2c1,GI50,UO-31 renal,6.39 µM
same,TGI,UO-31 renal,25 µM
same,GI50,MDA-MB-231 breast,7.95 µM
same,TGI,MDA-MB-231 breast,26.3 µM
same,GI50,HOP-92 NSCLC,1.9 µM
same,TGI,HOP-92 NSCLC,9.44 µM
same,GI50,RXF 393 renal,14.6 µM
same,TGI,RXF 393 renal,32.5 µM
same,GI50,HCC-2998 colon,2.31 µM
same,TGI,HCC-2998 colon,5.53 µM
same,GI50,BT-549 breast,20.7 µM
same,TGI,BT-549 breast,37.7 µM
same,GI50,SF-295 CNS,11.6 µM
same,TGI,SF-295 CNS,35.4 µM
same,GI50,SK-MEL-28 melanoma,14.5 µM
same,TGI,SK-MEL-28 melanoma,29.2 µM
same,GI50,OVCAR-5 ovarian,17.1 µM
same,TGI,OVCAR-5 ovarian,31.5 µM
same,GI50,A549 NSCLC,14.4 µM
same,TGI,A549 NSCLC,30.7 µM
same,GI50,NCI/ADR-RES ovarian,18.1 µM
same,TGI,NCI/ADR-RES ovarian,44.5 µM
same,GI50,SK-OV-3 ovarian,16.8 µM
same,TGI,SK-OV-3 ovarian,33.6 µM
same,GI50,K-562 leukemia,3.06 µM
same,TGI,K-562 leukemia,24 µM
same,GI50,SK-MEL-5 melanoma,12.9 µM
same,TGI,SK-MEL-5 melanoma,26.8 µM
same,GI50,UACC-257 melanoma,16.5 µM
same,TGI,UACC-257 melanoma,32.8 µM
same,GI50,M14 melanoma,8.15 µM
same,TGI,M14 melanoma,23.9 µM
same,GI50,NCI-H23 lung,12.9 µM
same,TGI,NCI-H23 lung,35.8 µM
same,GI50,IGROV1 ovarian,2.24 µM
same,TGI,IGROV1 ovarian,10.8 µM
same,GI50,SNB-75 CNS,16.9 µM
same,TGI,SNB-75 CNS,35.2 µM
same,GI50,OVCAR-8 ovarian,14 µM
same,TGI,OVCAR-8 ovarian,31.4 µM
same,GI50,OVCAR-3 ovarian,6.29 µM
same,TGI,OVCAR-3 ovarian,22.1 µM
same,GI50,UACC-62 melanoma,13 µM
same,TGI,UACC-62 melanoma,34.1 µM
same,GI50,NCI-H522 lung,1.71 µM
same,TGI,NCI-H522 lung,4.04 µM
same,GI50,SN12C renal,11.8 µM
same,TGI,SN12C renal,29.5 µM
same,GI50,A498 renal,14.2 µM
same,TGI,A498 renal,30 µM
same,GI50,MOLT-4 leukemia,4.04 µM
same,TGI,MOLT-4 leukemia,59 µM
same,GI50,RPMI-8226 leukemia,3.94 µM
same,TGI,RPMI-8226 leukemia,26.7 µM
same,GI50,SW-620 colon,1.97 µM
same,TGI,SW-620 colon,5.43 µM
same,GI50,NCI-H460 lung,4.21 µM
same,TGI,NCI-H460 lung,20.9 µM
same,GI50,SF-268 CNS,16 µM
same,TGI,SF-268 CNS,35.5 µM
same,GI50,PC-3 prostate,10.4 µM
same,TGI,PC-3 prostate,25.2 µM
same,GI50,DU-145 prostate,14.8 µM
same,TGI,DU-145 prostate,28 µM
same,GI50,LOX IMVI melanoma,4.05 µM
same,TGI,LOX IMVI melanoma,> 100 µM
same,GI50,TK-10 renal,4.89 µM
same,TGI,TK-10 renal,23.1 µM
same,GI50,T-47D breast,12.4 µM
same,TGI,T-47D breast,30.6 µM
same,GI50,CCRF-CEM leukemia,4.4 µM
same,TGI,CCRF-CEM leukemia,60.5 µM
same,GI50,NCI-H226 lung,16.6 µM
same,TGI,NCI-H226 lung,38.6 µM
same,GI50,COLO 205 colon,1.98 µM
same,TGI,COLO 205 colon,5 µM
same,GI50,MCF7 breast,3.4 µM
same,TGI,MCF7 breast,11.4 µM
same,GI50,SNB-19 CNS,15.7 µM
same,TGI,SNB-19 CNS,43.6 µM
same,GI50,HS 578T breast,20.3 µM
same,TGI,HS 578T breast,62.2 µM
same,GI50,CAKI-1 renal,9.2 µM
same,TGI,CAKI-1 renal,28.8 µM
same,GI50,HL-60(TB) leukemia,6.59 µM
same,TGI,HL-60(TB) leukemia,34.9 µM
same,GI50,HCT-15 colon,13.3 µM
same,TGI,HCT-15 colon,46.1 µM
same,GI50,KM12 colon,4.37 µM
same,TGI,KM12 colon,16.5 µM
same,GI50,ACHN renal,15 µM
same,TGI,ACHN renal,35.9 µM
same,GI50,MALME-3M melanoma,16.6 µM
same,TGI,MALME-3M melanoma,43.6 µM
same,GI50,EKVX NSCLC,12 µM
same,TGI,EKVX NSCLC,33.4 µM
same,GI50,OVCAR-4 ovarian,10.3 µM
same,TGI,OVCAR-4 ovarian,25.3 µM
same,GI50,SF-539 CNS,21.5 µM
same,TGI,SF-539 CNS,47.1 µM
same,GI50,786-0 renal,14.3 µM
same,TGI,786-0 renal,37.3 µM
same,GI50,MDA-MB-435,3.31 µM
same,TGI,MDA-MB-435,17.9 µM
same,GI50,SK-MEL-2 melanoma,13.5 µM
same,TGI,SK-MEL-2 melanoma,31.6 µM
same,GI50,HCT-116 colon,2.39 µM
same,TGI,HCT-116 colon,15.5 µM
same,GI50,U251 CNS,5.2 µM
same,TGI,U251 CNS,18.9 µM
same,GI50,HOP-62 NSCLC,15.2 µM
same,TGI,HOP-62 NSCLC,34.1 µM

# Reference: PubChem BioAssay (NCI)
